Reference: patent publication US20260015350A1, “AZAQUINAZOLINE PAN-KRAS INHIBITORS” (Mirati Therapeutics, Inc., priority 2022, published 2026)
One block for each compound: values may come before it.

How the values were obtained:
KRas^G12D = target: T1, KRas^G12D (Homo sapiens, UniProt P01116, G12D); test: KRas binding assay (TR-FRET tracer displacement), KRas G12D
T1 construct: Biotinylated KRas (corresponding to amino acids 1-169, produced at Accelegan Inc.); biotin (biotinylated); purchased Accelegan Inc

KRas^G12V = target: T2, KRas^G12V (Homo sapiens, UniProt P01116, G12V); test: KRas binding assay (TR-FRET tracer displacement), KRas G12V
T2 construct: Biotinylated KRas (corresponding to amino acids 1-169, produced at Accelegan Inc.); biotin (biotinylated); purchased Accelegan Inc

KRas^G12R = target: T3, KRas^G12R (Homo sapiens, UniProt P01116, G12R); test: KRas binding assay (TR-FRET tracer displacement), KRas G12R
T3 construct: Biotinylated KRas (corresponding to amino acids 1-169, produced at Accelegan Inc.); biotin (biotinylated); purchased Accelegan Inc

[1] = test system: KRas-mediated phosphorylation of ERK in H727 cells; test: Inhibition of KRas-mediated phosphorylation of ERK (Cisbio HTRF pERK), H727 cells; type: cell-based; settings: Homo sapiens, NCI-H727, H727 cells; HTRF pERK
Procedure, shortened: (§1)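 A cell-based HTRF pERK assay: ten-point, threefold titrations beginning at 10 uM were applied for 3 hrs, with 0.2 uM Trametinib wells as the minimum control. Cells were lysed cold, and lysate was incubated with the antibody pair for 2 hrs before reading.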

[2] = test system: KRas-mediated phosphorylation of ERK in AsPC-1 cells; test: Inhibition of KRas-mediated phosphorylation of ERK (Cisbio HTRF pERK), AsPC-1 cells; type: cell-based; settings: Homo sapiens, ASPC1, AsPC-1 cells; HTRF pERK
Procedure, shortened: as §1

T1 sequence (P01116 1-169 isoform P01116-2 G12D): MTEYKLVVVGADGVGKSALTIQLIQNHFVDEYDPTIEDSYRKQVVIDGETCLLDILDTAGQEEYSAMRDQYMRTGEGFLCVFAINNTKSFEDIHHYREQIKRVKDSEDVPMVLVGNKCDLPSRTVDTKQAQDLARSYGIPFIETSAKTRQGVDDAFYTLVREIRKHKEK
T3 sequence (P01116 1-169 isoform P01116-2 G12R): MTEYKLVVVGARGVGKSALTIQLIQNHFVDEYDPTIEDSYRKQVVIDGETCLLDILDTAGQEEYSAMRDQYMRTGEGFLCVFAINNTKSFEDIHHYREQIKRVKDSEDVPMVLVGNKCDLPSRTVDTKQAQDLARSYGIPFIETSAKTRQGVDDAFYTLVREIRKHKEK
T2 sequence (P01116 1-169 isoform P01116-2 G12V): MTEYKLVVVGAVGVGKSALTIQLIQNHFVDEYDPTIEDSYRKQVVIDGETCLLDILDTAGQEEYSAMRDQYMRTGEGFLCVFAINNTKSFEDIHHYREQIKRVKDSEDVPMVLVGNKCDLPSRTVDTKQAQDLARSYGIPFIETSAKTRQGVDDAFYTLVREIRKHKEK

SMILES: CCc1c(F)ccc2cc(O)cc(-c3ncc4c(N5CCC(N6C(=O)OC7CN(C(C)=O)CC76)CC5)nc(OC[C@@]56CCCN5C[C@H](F)C6)nc4c3F)c12 (stereo partly drawn) [Example 689, 5-acetyl-3-(1-(7-(8-ethyl-7-fluoro-3-hydroxynaphthalen-1-yl)-8-fluoro-2-(((2R,7aS)-2-fluorotetrahydro-1H-pyrrolizin-7a(5H)-yl)methoxy)pyrido[4,3-d]pyrimidin-4-yl)piperidin-4-yl)hexahydro-2H-pyrrolo[3,4-d]oxazol-2-one]
IC50 (KRas^G12D): 1650 nM | IC50 (KRas^G12V): 98 nM | IC50 (KRas^G12R): 349 nM | IC50 [1]: > 10000 nM | IC50 [2]: > 10000 nM

SMILES: CCc1c(F)ccc2cc(O)cc(-c3ncc4c(NCc5cn(C(=O)N(C)C)nc5NC(=O)C5CC(O)C5)nc(OC[C@@]56CCCN5C[C@H](F)C6)nc4c3F)c12 (stereo partly drawn) [Example 693, 4-(((7-(8-ethyl-7-fluoro-3-hydroxynaphthalen-1-yl)-8-fluoro-2-(((2R,7aS)-2-fluorohexahydro-1H-pyrrolizin-7a-yl)methoxy)pyrido[4,3-d]pyrimidin-4-yl)amino)methyl)-3-(3-hydroxycyclobutanecarboxamido)-N,N-dimethyl-1H-pyrazole-1-carboxamide]
IC50 (KRas^G12D): 509 nM | IC50 (KRas^G12V): 25 nM | IC50 (KRas^G12R): 38 nM | IC50 [1]: > 10000 nM | IC50 [2]: > 10000 nM

SMILES: CCc1c(F)ccc2cc(O)cc(-c3ncc4c(N5CC6C(=O)NC(=O)C6C5)nc(OC[C@]56CCCN5[C@H](COC(=O)N(C)C)CC6)nc4c3F)c12 (stereo partly drawn) [Example 708, ((3S,7aR)-7a-(((4-(4,6-dioxohexahydropyrrolo[3,4-c]pyrrol-2(1H)-yl)-7-(8-ethyl-7-fluoro-3-hydroxynaphthalen-1-yl)-8-fluoropyrido[4,3-d]pyrimidin-2-yl)oxy)methyl)hexahydro-1H-pyrrolizin-3-yl)methyl dimethylcarbamate]
IC50 (KRas^G12D): 19900 nM | IC50 (KRas^G12V): 42900 nM | IC50 (KRas^G12R): 39800 nM | IC50 [1]: > 10000 nM | IC50 [2]: > 10000 nM

SMILES: CCc1c(F)ccc2cc(O)cc(-c3ncc4c(N5CCC[C@@](C)(O)C5)nc(OCC56CC5CCCN(C)C6)nc4c3F)c12 (stereo partly drawn) [Example 828, (3R)-1-(7-(8-ethyl-7-fluoro-3-hydroxynaphthalen-1-yl)-8-fluoro-2-((3-methyl-3-azabicyclo[5.1.0]octan-1-yl)methoxy)pyrido[4,3-d]pyrimidin-4-yl)-3-methylpiperidin-3-ol]
IC50 (KRas^G12D): 11400 nM | IC50 (KRas^G12V): 12700 nM | IC50 (KRas^G12R): 21400 nM | IC50 [1]: > 10000 nM | IC50 [2]: > 10000 nM

SMILES: CCc1c(F)ccc2cc(O)cc(-c3ncc4c(N5CCC(Cc6cncn6C)C5)nc(OC[C@@]56CCCN5C[C@H](F)C6)nc4c3F)c12 (stereo partly drawn) [Example 829, 5-ethyl-6-fluoro-4-(8-fluoro-2-(((2R,7aS)-2-fluorotetrahydro-1H-pyrrolizin-7a(5H)-yl)methoxy)-4-(3-((1-methyl-1H-imidazol-5-yl)methyl)pyrrolidin-1-yl)pyrido[4,3-d]pyrimidin-7-yl)naphthalen-2-ol]
IC50 (KRas^G12D): 939 nM | IC50 (KRas^G12V): 195 nM | IC50 (KRas^G12R): 460 nM | IC50 [1]: > 10000 nM | IC50 [2]: > 10000 nM

SMILES: CCc1c(F)ccc2cc(O)cc(-c3ncc4c(N5CCCCCC(P(C)(C)=O)C5)nc(OC[C@@]56CCCN5C[C@H](F)C6)nc4c3F)c12 (stereo partly drawn) [Example 864, (1-(7-(8-ethyl-7-fluoro-3-hydroxynaphthalen-1-yl)-8-fluoro-2-(((2R,7aS)-2-fluorotetrahydro-1H-pyrrolizin-7a(5H)-yl)methoxy)pyrido[4,3-d]pyrimidin-4-yl)azocan-3-yl)dimethylphosphine oxide]
IC50 (KRas^G12D): 2130 nM | IC50 (KRas^G12V): 946 nM | IC50 (KRas^G12R): 1790 nM | IC50 [1]: > 10000 nM | IC50 [2]: > 10000 nM

SMILES: CCc1c(F)ccc2cc(O)cc(-c3ncc4c(N5CCn6ncc(C#N)c6C5)nc(OC[C@@]56CCCN5C[C@H](F)C6)nc4c3F)c12 [Example 865, 5-(7-(8-ethyl-7-fluoro-3-hydroxynaphthalen-1-yl)-8-fluoro-2-(((2R,7aS)-2-fluorotetrahydro-1H-pyrrolizin-7a(5H)-yl)methoxy)pyrido[4,3-d]pyrimidin-4-yl)-4,5,6,7-tetrahydropyrazolo[1,5-a]pyrazine-3-carbonitrile]
IC50 (KRas^G12D): 809 nM | IC50 (KRas^G12V): 310 nM | IC50 (KRas^G12R): 282 nM | IC50 [1]: > 10000 nM | IC50 [2]: 7700 nM

SMILES: CCc1c(F)ccc2cc(O)cc(-c3ncc4c(N5Cc6c(C(=O)N(C)C)nn(C)c6C5)nc(OC[C@@]56CCCN5C[C@H](F)C6)nc4c3F)c12 [Example 867, 5-(7-(8-ethyl-7-fluoro-3-hydroxynaphthalen-1-yl)-8-fluoro-2-(((2R,7aS)-2-fluorotetrahydro-1H-pyrrolizin-7a(5H)-yl)methoxy)pyrido[4,3-d]pyrimidin-4-yl)-N,N, 1-trimethyl-1,4,5,6-tetrahydropyrrolo[3,4-c]pyrazole-3-carboxamide]
IC50 (KRas^G12D): 527 nM | IC50 (KRas^G12V): 97 nM | IC50 (KRas^G12R): 253 nM | IC50 [1]: 3410 nM | IC50 [2]: > 10000 nM

SMILES: CCc1c(F)ccc2cc(O)cc(-c3ncc4c(N5CC(C)(O)C6CC5C6)nc(OC[C@@]56CCCN5C[C@H](F)C6)nc4c3F)c12 (stereo partly drawn) [Example 893, 2-(7-(8-ethyl-7-fluoro-3-hydroxynaphthalen-1-yl)-8-fluoro-2-(((2R,7aS)-2-fluorotetrahydro-1H-pyrrolizin-7a(5H)-yl)methoxy)pyrido[4,3-d]pyrimidin-4-yl)-4-methyl-2-azabicyclo[3.1.1]heptan-4-ol]
IC50 (KRas^G12D): 92 nM | IC50 (KRas^G12V): 43 nM | IC50 (KRas^G12R): 40 nM | IC50 [1]: 3020 nM | IC50 [2]: 2100 nM

SMILES: CCc1c(F)ccc2cc(O)cc(-c3ncc4c(N5CC6CCC(CCC(=O)NC)(C6)C5)nc(OC[C@@]56CCCN5C[C@H](F)C6)nc4c3F)c12 (stereo partly drawn) [Example 909, 3-(3-(7-(8-ethyl-7-fluoro-3-hydroxynaphthalen-1-yl)-8-fluoro-2-(((2R,7aS)-2-fluorotetrahydro-1H-pyrrolizin-7a(5H)-yl)methoxy)pyrido[4,3-d]pyrimidin-4-yl)-3-azabicyclo[3.2.1]octan-1-yl)-N-methylpropanamide]
IC50 (KRas^G12D): 24 nM | IC50 (KRas^G12V): 7 nM | IC50 (KRas^G12R): 7 nM | IC50 [1]: 1310 nM | IC50 [2]: 5160 nM

The next compounds have a lower IC50 (KRas^G12D) than those just listed; values first:

IC50 (KRas^G12D): 5 nM | IC50 (KRas^G12V): 2 nM | IC50 (KRas^G12R): 6 nM | IC50 [1]: > 10000 nM | IC50 [2]: > 10000 nM
SMILES: CCc1c(F)ccc2cc(O)cc(-c3ncc4c(NCc5cc(C(=O)N(C)C)nn5C5CS(=O)(=O)C5)nc(OC[C@@]56CCCN5C[C@H](F)C6)nc4c3F)c12 [Example 691, 1-(1,1-dioxidothietan-3-yl)-5-(((7-(8-ethyl-7-fluoro-3-hydroxynaphthalen-1-yl)-8-fluoro-2-(((2R,7aS)-2-fluorohexahydro-1H-pyrrolizin-7a-yl)methoxy)pyrido[4,3-d]pyrimidin-4-yl)amino)methyl)-N,N-dimethyl-1H-pyrazole-3-carboxamide]

IC50 (KRas^G12D): 23 nM | IC50 (KRas^G12V): 4 nM | IC50 (KRas^G12R): 3 nM | IC50 [1]: > 10000 nM | IC50 [2]: > 10000 nM
SMILES: CN(C)C(=O)n1cc(CNc2nc(OC[C@@]34CCCN3C[C@H](F)C4)nc3c(F)c(-c4cc(O)cc5ccc(F)c(Cl)c45)ncc23)c(NC(=O)[C@H]2C[C@H](O)C2)n1 [Example 775, 4-(((7-(8-chloro-7-fluoro-3-hydroxynaphthalen-1-yl)-8-fluoro-2-(((2R,7aS)-2-fluorohexahydro-1H-pyrrolizin-7a-yl)methoxy)pyrido[4,3-d]pyrimidin-4-yl)amino)methyl)-3-((1r,3S)-3-hydroxycyclobutanecarboxamido)-N,N-dimethyl-1H-pyrazole-1-carboxamide]

IC50 (KRas^G12D): < 2 nM | IC50 (KRas^G12V): < 2 nM | IC50 (KRas^G12R): 4 nM | IC50 [1]: 2550 nM | IC50 [2]: 1080 nM
SMILES: CCc1c(F)ccc2cc(O)cc(-c3ncc4c(N5CCC[C@@](C)(O)C5)nc(OCC5(CN(C)C)CC5CO)nc4c3F)c12 (stereo partly drawn) [Example 813, (3R)-1-(2-((1-((dimethylamino)methyl)-2-(hydroxymethyl)cyclopropyl)methoxy)-7-(8-ethyl-7-fluoro-3-hydroxynaphthalen-1-yl)-8-fluoropyrido[4,3-d]pyrimidin-4-yl)-3-methylpiperidin-3-ol]

IC50 (KRas^G12D): 8 nM | IC50 (KRas^G12V): 3 nM | IC50 (KRas^G12R): 3 nM | IC50 [1]: > 10000 nM | IC50 [2]: > 10000 nM
SMILES: O=C1NS(=O)(=O)NC12CCCN(c1nc(OC[C@@]34CCCN3C[C@H](F)C4)nc3c(F)c(-c4cc(O)cc5ccc(F)c(Cl)c45)ncc13)C2 (stereo partly drawn) [Example 816, 7-(7-(8-chloro-7-fluoro-3-hydroxynaphthalen-1-yl)-8-fluoro-2-(((2R,7aS)-2-fluorotetrahydro-1H-pyrrolizin-7a(5H)-yl)methoxy)pyrido[4,3-d]pyrimidin-4-yl)-2-thia-1,3,7-triazaspiro[4.5]decan-4-one 2,2-dioxide]

IC50 (KRas^G12D): < 2 nM | IC50 (KRas^G12V): < 2 nM | IC50 (KRas^G12R): < 2 nM | IC50 [1]: 2810 nM | IC50 [2]: 3180 nM
SMILES: CCc1c(F)ccc2cc3[nH]ncc3c(-c3ncc4c(N5CCC[C@]6(C5)NC(=O)NC6=O)nc(OCC56CCCN5CCC6)nc4c3F)c12 [Example 884, (5R)-7-(7-(5-ethyl-6-fluoro-1H-benzo[f]indazol-4-yl)-8-fluoro-2-((tetrahydro-1H-pyrrolizin-7a(5H)-yl)methoxy)pyrido[4,3-d]pyrimidin-4-yl)-1,3,7-triazaspiro[4.5]decane-2,4-dione]
